Assay results: patent US8945596B2, “Antimicrobial composition” (Conopco, Inc., priority 2008, dated 2015)

Key:
Format in all cases: cell-based
Vibrio cholerae = assay: Viable bacteria remaining after 15 seconds of contact with the actives; settings: 15 seconds contact, culture added 7.58
Experimental: (§1) About 10^7 bacterial cells (E. coli ATCC 10536) were taken in a test tube and contacted with various compositions for a period of 15 seconds. Bacteria were taken out after 15 seconds of contact and presence of viable cells was determined by serial dilution and plating on agar plates. The data is presented in log (Viable E. Coli) which is the log10 of the number of viable E. Coli remaining after 15 seconds of contact. Thus if 10^4 remained, log (Viable E. Coli) is 4.
(§2) The combination of thymol (0.2%) and terpineol (0.5%) was tested for its efficacy in inhibiting growth of various other bacteria after they are contacted with this combination for about 15 seconds. Similar experiments were carried out with another well known antibacterial active TCC (trichloro carbanilide). The experiments were carried out similar to those of Examples 1 to 3 and the data on the viable bacteria remaining after contact with the actives for 15 seconds is summarized in Table 3

Entereobacter = assay: as above; settings: 15 seconds contact, culture added 6.87
Experimental: as §1, §2

Klebsiella = assay: as above; settings: 15 seconds contact, culture added 7.35
Experimental: as §1, §2

Salmonella = assay: as above; settings: 15 seconds contact, culture added 7.63
Experimental: as §1, §2

E. coli ATCC 10536 = assay: Bacterial kill in test tube after 15 seconds of contact, serial dilution and plating; settings: log10 of viable E. coli remaining after 15 seconds of contact; about 10^7 cells initially; water as carrier
Experimental: Compositions comprising each individual active and a combination were prepared with water as a carrier (details given in Table 1 below). Terpineol and thymol were obtained from […] aromas, India. […] The data is presented in log (Viable E. Coli) which is the log10 of the number of viable E. […] Eucalyptol and linalool were obtained from Fluka. […] The data in log (Viable E.

[1] = system: Streptococcus mutans ATCC 25175; assay: Oxoplate oxygen depletion growth assay; settings: no oxygen depletion over 18 hours
Experimental: (§3) The anti-bacterial activity of the composition of the invention against a commonly found Gram positive oral bacteria viz. Streptococcus mutans ATCC 25175 and a Gram negative oral bacteria Neisseria subflava ATCC 19243) was determined. This was investigated using Oxoplates. Oxoplates monitor oxygen depletion within the reaction system (containing bacteria, broth and actives).
(§4) A Gram positive (Streptococcus mutans ATCC 25175) and a Gram negative (Neisseria subflava ATCC 19243) bacterium were selected for testing the active solutions. Both bacteria were grown on BHIS agar plates for 24 hours at 37° C./15% CO2, they were then suspended in PBS to a McFarland standard of 2 (˜6×10^8 cells).
(§5) Each active was dissolved in 50% ethanol solutions for testing. All solutions were made at 10 times concentrated to allow for dilution in the plate. Reduced concentrations were used for N. subflava due to the greater sensitivity of this organism to biocides,
(§6) The following components were placed into the wells of the Oxoplates, • 170 µl BHI broth • 20 µl test solution • 10 µl bacteria
(§7) The broth was placed into the Oxoplate first, followed by the test solution, and then the bacterium. Water or 50% ethanol controls were also used in each plate. All solutions were tested in replicates of four. The plates were placed into the fluorescent plate reader, incubated at 37° C. and measured every 15 minutes for 18 hours. The sensors on the bottom of the wells were measured at 2 wavelengths, • Indicator (650/[…]) • Reference (590/540 nm).
(§8) The oxygen concentration was calculated using these values and a calibration performed for maximum and minimum oxygen concentration. A graph was then plotted of the oxygen depletion curves over the 18 hour period, which was used to determine the level at which the bacteria start to deplete the oxygen.

[2] = system: Neisseria subflava ATCC 19243; assay: Oxoplate oxygen depletion growth assay; settings: no oxygen depletion over 18 hours
Experimental: as §3, §4, §5, §6, §7, §8

Question: What does the source list for `O=C(Nc1ccc(Cl)cc1)Nc1ccc(Cl)c(Cl)c1` [0.2% TCC, trichloro carbanilide]?
Answer: viable bacteria remaining (Vibrio cholerae): 7.20 Log (CFU/ml); viable bacteria remaining (Entereobacter): 6.87 Log (CFU/ml); viable bacteria remaining (Klebsiella): 7.28 Log (CFU/ml); viable bacteria remaining (Salmonella): 7.33 Log (CFU/ml)

Question: With `Cc1ccc(C(C)C)c(O)c1` [Example 1, Thymol] as the molecule, how does the “Log (Viable E. coli)” value (E. coli ATCC 10536) read?
Answer: 3.1

Question: `Cc1ccc(C(C)C)c(O)c1` [Example 25, Thymol] was tested. Which “Concentration of active (wt %) at no growth” value ([1]; thymol concentration) did it give?
Answer: Thymol (0.08%) wt %

Question: How did the “Concentration of active (wt %) at no growth” value ([2]; thymol concentration) turn out when `Cc1ccc(C(C)C)c(O)c1` [Example 28, Thymol] was run?
Answer: Thymol (0.02%) wt %

Question: With Terpineol [Example 2] as the molecule, how does the “Log (Viable E. coli)” value (E. coli ATCC 10536) read?
Answer: 6.3

Question: With Terpineol [Example 24] as the molecule, how does the “Concentration of active (wt %) at no growth” value ([1]; terpineol concentration) read?
Answer: Terpineol (0.4%) wt %

Question: For Terpineol [Example 27], which “Concentration of active (wt %) at no growth” value ([2]; terpineol concentration) is on record?
Answer: Terpineol (0.08%) wt %
